Values quoted from earlier work in publication PMC11667226 (Theranostics, 2025).

Tested on: EGFR
Conditions: microscopic histopathology as reference; ref Van Keulen et al. [36]; cited from earlier work
Description: Van Keulen et al. reported a 95% sensitiv ...

Substance: panitumumab-IRDye800: antibody-based optical imaging agent targeting EGFR
- Sensitivity for detection of inadequate margins (< 5mm): 95%
- Specificity for detection of inadequate margins (< 5mm): 89%
